This test deals with T1, human GPR119 (hGPR119) (Homo sapiens, UniProt Q8TDV5).
T1 construct: expressed in transfected cells
T1 sequence (Q8TDV5 1-335): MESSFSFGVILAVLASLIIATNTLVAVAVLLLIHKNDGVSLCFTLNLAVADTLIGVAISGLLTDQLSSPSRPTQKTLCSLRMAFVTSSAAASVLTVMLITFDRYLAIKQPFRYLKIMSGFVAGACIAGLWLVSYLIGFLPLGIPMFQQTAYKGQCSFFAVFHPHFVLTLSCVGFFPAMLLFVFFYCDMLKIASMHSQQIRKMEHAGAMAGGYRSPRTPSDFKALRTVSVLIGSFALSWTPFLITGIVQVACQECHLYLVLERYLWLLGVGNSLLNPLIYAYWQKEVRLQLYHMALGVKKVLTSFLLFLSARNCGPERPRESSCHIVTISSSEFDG
Nature of the test: cAMP accumulation assay (cAMP Gs dynamic HTRF kit). The format is cell-based. The following applies: CHO-K1 cells stably expressing hGPR119, 4-parameter fit; for Emax: 1 h, % activity normalized to Max/Min controls; for EC50: cAMP accumulation. The method, boiled down: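 CHO-K1 cells stably expressing hGPR119, used as assay-ready frozen stocks at ~10,000 cells/well, exposed to compound dose-response in stimulation buffer with Tween 80 for 60 min at 37° C. cAMP read by HTRF (665/620 nm ratio), normalised to Max/Min controls; EC50 and Max activity from 4-parameter fit.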

Drawing on US20230061736A1, “GPR119 AGONISTS” (Kallyope, Inc., priority 2019, published 2023), this text covers Emax and EC50 for 14 molecules.

In turn, `O=C(Cc1ccc(OCCCC2CCN(C(=O)OC3(C(F)(F)F)COC3)CC2)cc1F)N1CC(CNC[C@H](O)[C@@H](O)[C@H](O)[C@H](O)CO)C1` [Example 125, [3-(trifluoromethyl)oxetan-3-yl] 4-[3-[3-fluoro-4-[2-oxo-2-[3-[[[(2S,3R,4R,5R)-2,3,4,5,6-pentahydroxyhexyl]amino]methyl]azetidin-1-yl]ethyl]phenoxy]propyl]piperidine-1-carboxylate] had an Emax of 100 to 130% and an EC50 of 100 to 1000 nM.

Molecule `O=C(Cc1c(F)cc(OCCCC2CCN(C(=O)OC3(C(F)(F)F)COC3)CC2)cc1F)N1CC(CNC[C@H](O)[C@@H](O)[C@H](O)[C@H](O)CO)C1` [Example 126, [3-(trifluoromethyl)oxetan-3-yl] 4-[3-[3,5-difluoro-4-[2-oxo-2-[3-[[[(2S,3R,4R,5R)-2,3,4,5,6-pentahydroxyhexyl]amino]methyl]azetidin-1-yl]ethyl]phenoxy]propyl] piperidine-1-carboxylate] yielded an Emax of 100 to 130% and an EC50 of 100 to 1000 nM.

`O=C(NC[C@H](O)[C@@H](O)[C@H](O)[C@H](O)CO)[C@H]1CCN(C(=O)Cc2ccc(OCCCC3CCN(c4ncc(Cl)cn4)CC3)cc2F)C1` [Example 127, (3S)-1-[2-[4-[3-[1-(5-chloropyrimidin-2-yl)-4-piperidyl]propoxy]-2-fluoro-phenyl]acetyl]-N-[(2S,3R,4R,5R)-2,3,4,5,6-pentahydroxyhexyl]pyrrolidine-3-carboxamide] came in with an Emax not below 130% and a concentration giving a half-maximal response (EC50) not above 100 nM.

For `O=C(NC[C@H](O)[C@@H](O)[C@H](O)[C@H](O)CO)[C@H]1CCN(C(=O)Cc2c(F)cc(OCCCC3CCN(c4ncc(Cl)cn4)CC3)cc2F)C1` [Example 128, (3S)-1-[2-[4-[3-[1-(5-chloropyrimidin-2-yl)-4-piperidyl]propoxy]-2,6-difluoro-phenyl]acetyl]-N-[(2S,3R,4R,5R)-2,3,4,5,6-pentahydroxyhexyl]pyrrolidine-3-carboxamide], the Emax was not below 130% and the EC50 is not above 100 nM.

The molecule `CCOc1cnc(N2CCC(CCCOc3cc(F)c(CC(=O)N4CC[C@H](C(=O)NC[C@H](O)[C@@H](O)[C@H](O)[C@H](O)CO)C4)c(F)c3)CC2)nc1` [Example 130, (3S)-1-[2-[4-[3-[1-(5-ethoxypyrimidin-2-yl)-4-piperidyl]propoxy]-2,6-difluoro-phenyl]acetyl]-N-[(2S,3R,4R,5R)-2,3,4,5,6-pentahydroxyhexyl]pyrrolidine-3-carboxamide] yielded an Emax of 100 to 130% and an EC50 not above 100 nM.

On to `COCc1cnc(N2CCC(CCCOc3cc(F)c(CC(=O)N4CC[C@H](C(=O)NC[C@H](O)[C@@H](O)[C@H](O)[C@H](O)CO)C4)c(F)c3)CC2)nc1` [Example 131, (3S)-1-[2-[2,6-difluoro-4-[3-[1-[5-(methoxymethyl)pyrimidin-2-yl]-4-piperidyl]propoxy]phenyl]acetyl]-N-[(2S,3R,4R,5R)-2,3,4,5,6-pentahydroxyhexyl]pyrrolidine-3-carboxamide], for which the Emax was 100 to 130% and the EC50 is not above 100 nM.

For the molecule `O=C(Cc1c(F)cc(OCCCC2CCN(c3ncc(Cl)cn3)CC2)cc1F)N1CC[C@@H](CNC[C@H](O)[C@@H](O)[C@H](O)[C@H](O)CO)C1` [Example 132, 2-[4-[3-[1-(5-chloropyrimidin-2-yl)-4-piperidyl]propoxy]-2,6-difluoro-phenyl]-1-[(3S)-3-[[[(2S,3R,4R,5R)-2,3,4,5,6-pentahydroxyhexyl]amino]methyl]pyrrolidin-1-yl]ethanone], the Emax is 100 to 130% and the EC50 was not above 100 nM.

Turning to `CCOc1cnc(N2CCC(CCCOc3cc(F)c(CC(=O)N4CC[C@@H](CNC[C@H](O)[C@@H](O)[C@H](O)[C@H](O)CO)C4)c(F)c3)CC2)nc1` [Example 134, 2-[4-[3-[1-(5-ethoxypyrimidin-2-yl)-4-piperidyl]propoxy]-2,6-difluoro-phenyl]-1-[(3S)-3-[[[(2S,3R,4R,5R)-2,3,4,5,6-pentahydroxyhexyl]amino]methyl]pyrrolidin-1-yl]ethanone], the Emax fell in the range of 100 to 130% and the EC50 was not above 100 nM.

For the molecule `COCc1cnc(N2CCC(CCCOc3cc(F)c(CC(=O)N4CC[C@@H](CNC[C@H](O)[C@@H](O)[C@H](O)[C@H](O)CO)C4)c(F)c3)CC2)nc1` [Example 135, 2-[2,6-difluoro-4-[3-[1-[5-(methoxymethyl)pyrimidin-2-yl]-4-piperidyl]propoxy]phenyl]-1-[(3S)-3-[[[(2S,3R,4R,5R)-2,3,4,5,6-pentahydroxyhexyl]amino]methyl]pyrrolidin-1-yl]ethanone], the Emax was in the range of 100 to 130% and the EC50 is not above 100 nM.

On to `COCC1(C(=O)NC[C@H](O)[C@@H](O)[C@H](O)[C@H](O)CO)CCN(C(=O)Cc2ccc(OCCCC3CCN(c4ncc(Cl)cn4)CC3)cc2F)C1` (stereo partly drawn) [Example 136, 1-[2-[4-[3-[1-(5-chloropyrimidin-2-yl)-4-piperidyl]propoxy]-2-fluoro-phenyl]acetyl]-3-(methoxymethyl)-N-[(2S,3R,4R,5R)-2,3,4,5,6-pentahydroxyhexyl]pyrrolidine-3-carboxamide], for which the Emax lay in the range of 100 to 130% and the EC50 is not above 100 nM.

The molecule `COCC1(C(=O)NCC(CO)(CO)CO)CCN(C(=O)Cc2ccc(OCCCC3CCN(c4ncc(Cl)cn4)CC3)cc2F)C1` (stereo not shown) [Example 137, 1-[2-[4-[3-[1-(5-chloropyrimidin-2-yl)-4-piperidyl]propoxy]-2-fluoro-phenyl]acetyl]-N-[3-hydroxy-2,2-bis(hydroxymethyl)propyl]-3-(methoxymethyl)pyrrolidine-3-carboxamide] came in with an Emax of 100 to 130% and an EC50 not above 100 nM.

As to `O=C(Cc1ccc(OCCC2CCC23CCN(c2ncc(Cl)cn2)CC3)cc1F)N1CC(CNC[C@H](O)[C@@H](O)[C@H](O)[C@H](O)CO)C1` (stereo partly drawn) [Example 138, 2-[4-[2-[7-(5-chloropyrimidin-2-yl)-7-azaspiro[3.5]nonan-3-yl]ethoxy]-2-fluoro-phenyl]-1-[3-[[[(2S,3R,4R,5R)-2,3,4,5,6-pentahydroxyhexyl]amino]methyl]azetidin-1-yl]ethanone], the Emax lay in the range of 50 to 100% and the EC50 lay within 1000 to 10000 nM.

As to `O=C(Cc1c(F)cc(OCCC2CCC23CCN(c2ncc(Cl)cn2)CC3)cc1F)N1CC(CNC[C@H](O)[C@@H](O)[C@H](O)[C@H](O)CO)C1` (stereo partly drawn) [Example 139, 2-[4-[2-[7-(5-chloropyrimidin-2-yl)-7-azaspiro[3.5]nonan-3-yl]ethoxy]-2,6-difluoro-phenyl]-1-[3-[[[(2S,3R,4R,5R)-2,3,4,5,6-pentahydroxyhexyl]amino]methyl]azetidin-1-yl]ethanone], the Emax lay in the range of 100 to 130% and the EC50 fell in the range of 100 to 1000 nM.

On to `CC(C)OC(=O)N1CCC2(CCC2CCOc2ccc(CC(=O)N3CC(CNC[C@H](O)[C@@H](O)[C@H](O)[C@H](O)CO)C3)c(F)c2)CC1` (stereo partly drawn) [Example 140, isopropyl 3-[2-[3-fluoro-4-[2-oxo-2-[3-[[[(2S,3R,4R,5R)-2,3,4,5,6-pentahydroxyhexyl]amino]methyl]azetidin-1-yl]ethyl]phenoxy]ethyl]-7-azaspiro[3.5]nonane-7-carboxylate], for which the Emax was less than 50% and the EC50 was more than 10000 nM.

One may read the Emax as the size of the effect at its maximum, as opposed to the concentration needed. As a reminder, the EC50 is the concentration at which the effect is half-maximal. Higher therefore signals lower potency in that assay.
